Columns and labels:
[1] = tested on: bone marrow cells; experiment: Bone marrow cell proliferation, [3H]-thymidine incorporation assay; type: cell-based, C57BL/6J or ICR mice; conditions: for reduction of the increase in bone marrow cell proliferation as compared to adenosine alone: antagonist in combination with adenosine
Protocol: Bone marrow cells derived from the femur of C57BL/6J mice were used. The cells were prepared as previously described.
For this purpose, bone marrow cells obtained from the femur of C57BL/6J or ICR mice were first disaggregated by passing through a 25 G needle. Then, the cells (3×10^5 cells/well, in 96 microtiter plates) were incubated with RPMI medium containing 10% fetal bovine serum (FBS) in the presence of adenosine (25 μM). Adenosine or agonists to the A1 and A3 adenosine receptors—CPA (an A1RAg, 0.01 μM), CCPA (an A1RAg, 0.01 μM), or IB-MECA (an A3RAg, 0.01 μM), were added to the bone marrow cultures in the absence of adenosine; an A1 adenosine receptor antagonist, DPCPX (0.1 μM), was added to a bone marrow culture in the presence of adenosine (25 μM).
Cultures containing cells suspended in RPMI medium and 5% FBS served as the control for the above detailed experiment.
[^3H]-Thymidine incorporation assay was used to evaluate the proliferation of the bone marrow cells. For this purpose, after 30 hours of incubation, each well was pulsed with 1 μCi [^3H]-Thymidine. After a total of 48 hours of incubation, the cells were harvested and the [^3H]-Thymidine uptake was determined in an LKB liquid scintillation counter (LKB, Piscataway, N.J., USA).
Cell proliferation was evaluated as described above.
The cumulative effect on the proliferation of bone marrow cells, when using a combination of an A1RAgm1 A3RAg, (CPA and IB-MECA) was evaluated. Cells, after being disaggregated, were incubated in the presence of either adenosine (25 μM), CPA (0.01 μM), IB-MECA (0.01 μM) or a combination of IB-MECA and CPA (each in a concentration of 0.01 μM) and further treated as described above.
In order to compare the effect of adenosine receptor antagonist on the proliferation of bone marrow cells, following the same methodology described above, cells were incubated with adenosine alone or in combination with either DMPX (an A2RAn), DPCPX (an A1RAn), MRS-1220 (an A3RAn) or with a combination of DPCPX and MRS-1220.
Cells pre-treated as described above, were incubated at different concentrations of IB-MECA (1 μM, 0.1 μM or 0.01 μM).
Bone marrow cells (3×10^6 cell/ml) were incubated in wells of 96 microtiter plates. […] Cell proliferation was measured by [^3H]-thymidine incorporation assay.
B-16 melanoma cells (5×10^5 cells/ml) and bone marrow cells (3×10^6 cells/ml) were incubated in wells of 96 microtiter plate. […] Cell proliferation was measured by the [^3H]-thymidine incorporation assay mentioned before.
Murine bone marrow cells were cultured as described above. […] The antagonist was added at a concentration of 10 nM.

[2] = tested on: Nb2-11C rat lymphoma cells; experiment: Nb2-11C lymphoma cell growth, cell count assay; type: cell-based; conditions: for effect of receptor antagonist on the effect of adenosine on proliferation of Nb2-11C cells: 0.1 μM antagonist in combination with adenosine 25 μM, FIG. 5B; for growth inhibition of Nb2-11C lymphoma cells by receptor agonists: 0.01 μM agonist, 48 hours, FIG. 5A
Protocol: Nb2-11C rat lymphoma cells (1.2×10^4 cells/ml) were incubated for 48 hours in 96 well microtiter plates with 1 ml RPMI medium containing 5% fetal bovine serum. Either 25 μM adenosine, 0.01 μM of an adenosine receptor agonists (CPA, an A1RAg; DPMA, an A2RAg or IB-MECA, an A3RAg) or 0.1 μM of an adenosine receptor antagonists (DPCPX, an A1RAn; DMPX, an A2RAn; or MRS-1220, an A3RAn) in combination with adenosine (25 μM) was added.
Cultures containing cells suspended in RPMI medium with 5% FBS served as controls for the above detailed experiment. Extent of cell proliferation was measured by a cell count assay.
Briefly, Nb2-11C lymphoma or bone marrow cells were incubated in the presence of either adenosine, or IB-MECA.

[3] = tested on: peripheral blood leukocytes and neutrophils; conditions: for total white blood cell count after cyclophosphamide: i.p. adenosine 25 μg/kg or IB-MECA 3 or 6 μg/kg at 48 and 72 hours, FIG. 10A
Protocol: A further experiment was conducted in order to evaluate the chemoprotective effect of A3RAg. Mice were treated with cyclophosphamide (50 mg/kg body weight in 0.3 ml PBS). After 48 and 72 hours from administration of the cytotoxic drug, the mice were injected i.p. with adenosine (25 μg/kg body weight) or with IB-MECA (3 or 6 μg/kg body weight in 0.2 ml PBS). The number of white blood cells (WBC) and neutrophils was tested.

[4] = Weight of nude mice treated with 5-FU and/or Cl-IB-MECA; type: in vivo, nude mice (BALB/C origin); conditions: FIG. 11; for weight of the mice as compared to control: day 7, 10 and 14, 5-FU 30 mg/kg i.p. five days, or Cl-IB-MECA 6 μg/kg oral every second day, alone
[5] = tested on: HCT-116 human colon cancer cells; experiment: HCT-116 human colon carcinoma tumor growth in nude mice; type: in vivo; conditions: for tumor growth (tumor size), combined therapy experiment: 5-FU 30 mg/kg i.p. 5 days, Cl-IB-MECA 5 μg/kg oral every other day, FIGS. 15 and 16
Protocol: Tumors were established by subcutaneous injection of 1×10^6 HCT-116 human colon cancer cells to nude mice (BALB/C origin) (Harlan, Jerusalem, Israel). […] Mice that were treated with the vehicle only (PBS). Each group consisted of 10 mice. Tumor growth rate was determined by measuring two orthogonal diameters of each tumor twice a week, and the tumor size was estimated according to the following formula: π/6[D1D2]. The results are depicted in FIG. 14. […] 1×10^6 HCT-116 cells were injected subcutaneously to nude mice. One day later, 5-FU (30 mg/kg body weight, in 0.2 ml PBS) was intraperitoneally injected and subsequently in 4 additional consecutive days. […] Mice that were treated either with the vehicle only (PBS) or with 5-FU served as control. Each group consisted of 10 mice. Tumor growth rate was determined by measuring two orthogonal diameters of each tumor twice a week, and the tumor size was estimated according to the following formula: π/6[D1D2].

[6] = tested on: B-16 melanoma cells; experiment: B-16 melanoma cell proliferation, [3H]-thymidine incorporation assay; type: cell-based, Murine; conditions: FIG. 18
Protocol: B-16 melanoma cells (5×10^5 cells/ml) and bone marrow cells (3×10^6 cells/ml) were incubated in wells of 96 microtiter plate. The culture consisted of RPMI medium supplemented with 10% FTS: […] Cell proliferation was measured by the [^3H]-thymidine incorporation assay mentioned before.

[7] = tested on: white blood cells and bone marrow nucleated cells; experiment: Doxorubicin-induced myelotoxicity in ICR mice; type: in vivo; conditions: doxorubicin 10 mg/kg i.p., Cl-IB-MECA 6 μg/kg oral at 24, 48, 72 hours
Protocol: ICR mice were treated with doxorubicin (injection of 10 mg/kg i.p. in 0.5 ml PBS). […] At 72 hours, 96 hours, 120 hours and 144 hours, the mice were sacrificed and blood samples were withdrawn. In addition, bone marrow cells were aspirated from the femur of the mice and a cell count of nucleated cells from this aspirated preparation was made, following staining of the preparation with Coomassie Blue.

[8] = tested on: white blood cells (WBC); conditions: CYP 50 mg/kg i.p.; blood 124 hours after chemotherapy; FIG. 13
Protocol: Each group consisted of 10 mice and the experiment was repeated twice.
The CYP was injected intraperitoneally in 0.2 ml of PBS which served as the carrier.
Anti-G-CSF antibodies were intravenously injected (in 0.2 ml PBS) 72 hours following the administration of the chemotherapeutic drugs.
Blood samples were withdrawn 124 hours following chemotherapy. White blood cells (WBC) counts were made in a Coulter counter and differential cell counts were carried on smear preparations stained with May-Grundvald-Giemsa solution.

For CCCn1c(=O)c2[nH]c(C3CCCC3)nc2n(CCC)c1=O [DPCPX, 1,3-dipropyl-8-cyclopentylxanthine, reference compound], the “reduction of the increase in bone marrow cell proliferation as compared to adenosine alone” value ([1]; FIG. 3B) was “about 50%” and the “effect of receptor antagonist on the effect of adenosine on proliferation of Nb2-11C cells” value (from here on “effect of receptor antagonist”) [2] was “essentially no effect”.

In the case of CNC(=O)[C@H]1O[C@@H](n2cnc3c(NCc4cccc(I)c4)ncnc32)[C@H](O)[C@@H]1O [IB-MECA, 1-deoxy-1-{6-[({3-iodophenyl}methyl)amino]-9H-purine-9-yl}-N-methyl-β-D-ribofuranuronamide], the “effect on proliferation of bone marrow cells” value (“effect on proliferation” below) ([1]; 1 or 10 nM, FIG. 20) was “dose dependent”, the “effect on proliferation” value ([1]; FIG. 7B) was “stimulating the proliferation of bone marrow cells” and the “stimulation of bone marrow cell proliferation” value ([1]; IB-MECA 1 μM, 0.1 μM or 0.01 μM) was “stimulates proliferation of bone marrow in a dose dependent manner”. For the same compound, the “growth inhibition of Nb2-11C lymphoma cells by receptor agonists” value (“growth inhibition” for short) [2] was “markedly inhibited”, the “effect on growth of tumor cells (Nb2-11C lymphoma)” value ([2]; FIG. 7A) was “inhibiting the growth of tumor cells” and the “complete recovery of total white blood cell count after” value ([3]; cyclophosphamide 50 mg/kg, IB-MECA i.p. at 48 and 72 hours) was 168 h. For the same compound, the “total white blood cell count after cyclophosphamide” value ([3]; cyclophosphamide 50 mg/kg) was “restored”.

For C#CCn1c(=O)c2c(ncn2C)n(C)c1=O [DMPX, 3,7-dimethyl-1-propargyl-xantane, reference compound], the “proliferation of bone marrow cells, adenosine in combination with receptor antagonist” value ([1]; compared to adenosine alone, FIG. 3B) was “increased proliferation of bone marrow cells which even exceeded that of adenosine alone” and the “effect of receptor antagonist” value [2] was “minor, however still significant effect”.

In the case of O=C(Cc1ccccc1)Nc1nc2ccc(Cl)cc2c2nc(-c3ccco3)nn12 [MRS-1220, 9-chloro-2-(2-furanyl)-5-[(phenylacetyl)amino] [1,2,4,]-triazolo[1,5-c]quinazoline], the “reduction of the increase in bone marrow cell proliferation as compared to adenosine alone” value ([1]; FIG. 3B) was “about 50%”, the “effect of receptor antagonist” value [2] was “substantially abolished” and the “therapeutic effect of A3RAg (IB-MECA) when A3 receptor antagonist employed” value ([2]; FIGS. 7A–7B, tumor and normal cells) was “reversed”.

With O=c1[nH]cc(F)c(=O)[nH]1 [5-FU, 5-fluoro-uracyl, reference compound] the “weight of the mice as compared to control” value [4] was “profound effect on the weight of the mice” and the “tumor growth (tumor size), combined therapy experiment” value [5] was “marked inhibition of tumor growth”.

For CNC(=O)[C@H]1O[C@@H](n2cnc3c(NCc4cccc(I)c4)nc(Cl)nc32)[C@H](O)[C@@H]1O [Cl-IB-MECA], the “effect on proliferation” value ([1]; 1 or 10 nM, FIG. 20) was “dose dependent”, the “proliferation of bone marrow cells” value ([1]; Cl-IB-MECA 0.01 μM or 0.1 μM, FIG. 18) was “proliferation stimulation effect” and the “proliferation of B-16 melanoma cells” value ([6]; Cl-IB-MECA 0.01 μM or 0.1 μM) was “inhibitory effect”. The “white blood cells and neutrophils after chemotherapy, experiment with Cl-IB-MECA” value ([3]; mouse, in vivo) was “chemoprotective activity”, the 5-FU-induced weight loss ([4]; Cl-IB-MECA 6 μg/kg oral administered together with 5-FU 30 mg/kg i.p.) was “prevented some of this weight loss” and the “weight of the mice as compared to control” value [4] was “did essentially not give rise to any weight loss”. The “number of peripheral white blood cells after doxorubicin” value ([7]; FIG. 12A) was “marked increase”, the “number of bone marrow nucleated cells after doxorubicin” value ([7]; FIG. 12B) was “marked increase” and the “tumor growth (tumor size), combined therapy experiment” value [5] was “marked inhibition of tumor growth”. For the same compound, the “tumor growth (tumor size)” value ([5]; Cl-IB-MECA 6 μg/kg oral every other day, FIG. 14) was “marked inhibition of tumor growth”.

For CCCOC(=O)c1c(-c2ccccc2)nc(CC)c(C(=O)SCC)c1CCC [MRS-1523, reference compound], the “proliferation of bone marrow cells in the presence of MRS-1523” value ([1]; with Cl-IB-MECA 0.01 μM or 0.1 μM, FIG. 18) was “unchanged versus control” and the “proliferation of B-16 melanoma cells in the presence of MRS-1523” value ([6]; with Cl-IB-MECA 0.01 μM or 0.1 μM) was “unchanged versus control”.

In the case of O=P1(N(CCCl)CCCl)NCCCO1 (stereo not drawn) [cyclophosphamide, Cyclophosphamide, reference compound], the “number of peripheral blood leukocytes and neutrophils, cytotoxic drug only” value ([3]; cyclophosphamide 50 mg/kg only) was “decline in the number of peripheral blood leukocytes and neutrophils” and the “number of peripheral blood WBC, cyclophosphamide only” value [8] was “decline in the number of peripheral blood WBC”.

With OC[C@H]1O[C@@H](n2cnc3c(NC4CCCC4)ncnc32)[C@H](O)[C@@H]1O [CPA, N-cyclopentyladenosine] the “growth inhibition” value [2] was “No growth inhibition”.

With Nc1ncnc2c1ncn2[C@@H]1O[C@H](CO)[C@@H](O)[C@H]1O [adenosine] the “total white blood cell count after cyclophosphamide” value ([3]; cyclophosphamide 50 mg/kg) was “restored”.

For COc1cc(OC)cc(C(CNc2ncnc3c2ncn3[C@@H]2O[C@H](CO)[C@@H](O)[C@H]2O)c2ccccc2C)c1 (stereo partly drawn) [DPMA, N^6-[2-(3,5-dimethoxyphenyl)-2-(2-methylphenyl)-ethyl] adenosine], the “growth inhibition” value [2] was “lower growth inhibition”.

From patent US7064112B1, “Pharmaceutical compositions comprising an adenosine receptor agonist or antagonist” (Can-Fite Biopharma Ltd., priority 1999, dated 2006)
